Test results: ChEMBL document CHEMBL1201862, “PubChem BioAssay data set” (2004)
Calls of active or inactive are those of the source. Rule as the data show it, for most assays here: actives have a measured EC50 and inactives only a lower limit.

Tests used:
[1] = cytotoxicity in HEK-293T cells, dose response, cytotoxicity control for BCR NF-kB inhibitor project, luminescence, B-cell screen hits (AID 489021); format: functional, cell-based;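 also: HEK-293T cells carrying an NF-kB luciferase reporter; cells exposed to compound for about 14 hours before viability readout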
CAAX prenyl protease 2 = molecular target: T1, CAAX prenyl protease 2 (Saccharomyces cerevisiae S288c, UniProt Q03530); format: biochemical
T1 sequence (Q03530 whole entry): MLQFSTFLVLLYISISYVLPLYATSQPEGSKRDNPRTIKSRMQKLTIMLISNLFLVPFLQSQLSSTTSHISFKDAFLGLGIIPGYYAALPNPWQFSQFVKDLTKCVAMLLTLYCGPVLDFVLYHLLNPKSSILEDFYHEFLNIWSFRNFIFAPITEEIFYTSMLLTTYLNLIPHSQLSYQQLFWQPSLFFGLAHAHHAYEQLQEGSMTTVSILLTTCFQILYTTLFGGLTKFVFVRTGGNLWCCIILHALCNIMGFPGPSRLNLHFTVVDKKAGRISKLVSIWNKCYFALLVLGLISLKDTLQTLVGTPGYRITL

[2] = molecular target: T2, RNA-binding protein pos-1 (Caenorhabditis elegans, UniProt G5EF15); assay: inhibitors of POS-1/mex-3 RNA binding, dose response, biochemical, fluorescence polarization (AID 1964);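 also: purified POS-1 fused to maltose binding protein made in E. coli; potency of compounds blocking POS-1 binding to fluorescent RNA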
T2 sequence (G5EF15 whole entry): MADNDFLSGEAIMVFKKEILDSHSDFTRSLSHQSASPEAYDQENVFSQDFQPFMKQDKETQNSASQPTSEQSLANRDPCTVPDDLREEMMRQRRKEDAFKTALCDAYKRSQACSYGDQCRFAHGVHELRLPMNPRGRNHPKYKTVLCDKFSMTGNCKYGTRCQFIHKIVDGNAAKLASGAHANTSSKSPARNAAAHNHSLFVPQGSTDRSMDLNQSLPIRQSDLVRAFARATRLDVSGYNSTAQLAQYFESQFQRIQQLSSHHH

[3] = molecular target: T3, Zinc finger protein mex-5 (Caenorhabditis elegans, UniProt Q9XUB2); assay: MEX-5/TCR-2 RNA interaction inhibitors, dose response, biochemical, C. elegans, fluorescence polarization (AID 1960)
T3 sequence (Q9XUB2 whole entry): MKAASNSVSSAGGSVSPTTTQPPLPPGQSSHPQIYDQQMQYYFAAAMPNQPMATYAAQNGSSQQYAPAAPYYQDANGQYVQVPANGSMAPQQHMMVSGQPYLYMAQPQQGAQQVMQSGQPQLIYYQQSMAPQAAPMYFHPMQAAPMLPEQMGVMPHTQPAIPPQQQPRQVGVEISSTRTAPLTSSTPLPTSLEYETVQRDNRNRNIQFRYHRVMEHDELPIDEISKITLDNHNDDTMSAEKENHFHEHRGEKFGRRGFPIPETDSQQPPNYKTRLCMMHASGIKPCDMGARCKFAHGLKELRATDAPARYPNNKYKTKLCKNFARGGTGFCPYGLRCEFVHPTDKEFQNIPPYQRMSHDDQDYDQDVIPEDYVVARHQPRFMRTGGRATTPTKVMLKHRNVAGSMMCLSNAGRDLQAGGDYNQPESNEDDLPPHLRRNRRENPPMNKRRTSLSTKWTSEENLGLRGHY

[4] = inhibitors of firefly luciferase expression or activity, dose response, H4 neuroglioma cells, luminescence (AID 1990); format: functional, cell-based
[5] = inhibitors of SNCA 5'UTR-driven reporter translation, confirmation, H4 neuroglioma cells, luminescence (AID 1988); format: functional, cell-based
[6] = Luminescence Cell-Based Dose Response HTS to Identify Inhibitors of 5'UTR Stem-Loop Driven Prion Protein mRNA Translation in H4 Neuroglioblastoma Cells. [Related pubchem assays: 1827 (Project Summary), 1813 (Primary HTS)]; format: functional

Row | Structure (SMILES) | IC50 [1] | AC50 (CAAX prenyl protease 2) | EC50 [2] | EC50 [3] | EC50 [4] | EC50 [5] | EC50 [6]
1 | C=CCOc1ccc(NC(=O)C(=O)NCCCn2ccnc2)cc1 | > 80 µM (inactive) | – | – | – | – | – | –
2 | CCCn1c(O)c(N=NC(=O)CNC(=O)Cc2ccc(OC)cc2)c2ccccc21 | – | > 100 µM (inactive) | – | – | – | – | –
3 | COc1cccc(/C=C2\SC(=S)N(CCCC(=O)NC3=NCCS3)C2=O)c1 | > 80 µM (inactive) | – | > 300 µM (not active) | > 300 µM (not active) | 11.8 µM (active) | 13.2 µM (active) | 14 µM (active)
